Source: PubChem BioAssay AID256 (DTP/NCI, 2004)
Several values for one entry are separate records, joined by “and”; a condition that tells them apart may be missing. Equal entries are not always repeated. Toxic doses and inconclusive results are not listed. Rule for the calls: active = survival T/C of 150% or more; inactive = T/C below 125% in these data.

Test system: CD2F1 mice, L1210 leukemia ip, survival T/C
Experiment: NCI In Vivo Anticancer Drug Screen. Data for tumor model L1210 Leukemia (intraperitoneal) in CD2F1 (CDF1) mice
Details: endpoint: mean survival time, higher = longer survival
Method in brief: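 Vehicle-treated tumor-bearing mice served as controls (C) for compound-treated mice (T). Reported figure is T divided by C.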

[1] = dose: 100.0 mg/kg/injection, schedule: Q01DX001 (ip), vehicle: saline with Tween-80
[2] = dose: 200.0 mg/kg/injection, schedule: Q01DX001 (ip), vehicle: saline with Tween-80
[3] = dose: 400.0 mg/kg/injection, schedule: Q01DX001 (ip), vehicle: saline with Tween-80
[4] = dose: 50.0 mg/kg/injection, schedule: Q01DX009 (ip), vehicle: saline with Tween-80
[5] = dose: 100.0 mg/kg/injection, schedule: Q01DX009 (ip), vehicle: saline with Tween-80
[6] = dose: 200.0 mg/kg/injection, schedule: Q01DX009 (ip), vehicle: saline with Tween-80
[7] = dose: 100.0 mg/kg/injection, schedule: Q04DX003 (ip), vehicle: saline with Tween-80
[8] = dose: 200.0 mg/kg/injection, schedule: Q04DX003 (ip), vehicle: saline with Tween-80
[9] = dose: 400.0 mg/kg/injection, schedule: Q04DX003 (ip), vehicle: saline with Tween-80

Measured: T/C

CC1(Br)CS(=O)(=O)CC1(C)Br (centres undefined)
inactive: dose: 75.0 mg/kg/injection, schedule: Q01DX001 (ip), vehicle: saline with Tween-80 104 % of control | dose: 150.0 mg/kg/injection, schedule: Q01DX001 (ip), vehicle: saline with Tween-80 98 % of control | dose: 300.0 mg/kg/injection, schedule: Q01DX001 (ip), vehicle: saline with Tween-80 101 % of control

COc1cc(C2c3cc4c(cc3CC3COC(=O)C32)OCO4)cc(OC)c1O (centres undefined)
inactive: dose: 0.5 mg/kg/injection, schedule: Q01DX009 (ip), vehicle: saline with Tween-80 91 % of control | dose: 1.0 mg/kg/injection, schedule: Q01DX009 (ip), vehicle: saline with Tween-80 100 % of control | dose: 2.0 mg/kg/injection, schedule: Q01DX009 (ip), vehicle: saline with Tween-80 112 % of control | dose: 4.0 mg/kg/injection, schedule: Q01DX009 (ip), vehicle: saline with Tween-80 100 % of control

Cc1ccc(C2=CC(=O)C(c3ccc(C)cc3C)=CC2=O)c(C)c1
inactive: [1] 92 % of control | dose: 100.0 mg/kg/injection, schedule: Q04DX002 (ip), vehicle: saline with Tween-80 86 % of control | [2] 91 % of control | dose: 200.0 mg/kg/injection, schedule: Q04DX002 (ip), vehicle: saline with Tween-80 93 % of control | [3] 94 % of control | dose: 400.0 mg/kg/injection, schedule: Q04DX002 (ip), vehicle: saline with Tween-80 101 % of control

Nc1ccccc1-c1ccccc1N
inactive: dose: 100.0 mg/kg/injection, schedule: Q04DX002 (ip), vehicle: saline 87 % of control

OCC#CC1CCCCC1
inactive: [4] 107 % of control | [5] 107 % of control | [6] 101 % of control

CN(C)CC[CH2][Sn]([CH3])([CH3])[CH3]
inactive: dose: 3.12 mg/kg/injection, schedule: Q01DX009 (ip), vehicle: saline with Tween-80 104 % of control | dose: 6.25 mg/kg/injection, schedule: Q01DX009 (ip), vehicle: saline with Tween-80 100 % of control | dose: 12.5 mg/kg/injection, schedule: Q01DX009 (ip), vehicle: saline with Tween-80 90 % of control

O=C(CC(c1ccccc1)c1ccccc1)c1ccccc1
inactive: [5] 98 % of control | [6] 95 % of control | dose: 400.0 mg/kg/injection, schedule: Q01DX009 (ip), vehicle: saline with Tween-80 98 % of control

CCC(C)(O)c1cnc(CC(C)C)c(=O)n1O (centres undefined)
inactive: dose: 75.0 mg/kg/injection, schedule: Q01DX001 (ip), vehicle: saline 98 % of control | dose: 150.0 mg/kg/injection, schedule: Q01DX001 (ip), vehicle: saline 102 % of control

O=C1OCCN1NCc1ccc(Cl)cc1
inactive: dose: 12.5 mg/kg/injection, schedule: Q01DX009 (ip), vehicle: DMSO 88 % of control | dose: 25.0 mg/kg/injection, schedule: Q01DX009 (ip), vehicle: DMSO 93 % of control | dose: 50.0 mg/kg/injection, schedule: Q01DX009 (ip), vehicle: DMSO 89 % of control and 91 % of control | dose: 100.0 mg/kg/injection, schedule: Q01DX009 (ip), vehicle: DMSO 96 % of control

Cc1ccc(Sc2ncnc3c2ncn3C2OC(CO)C(O)C2O)cc1 (centres undefined)
inactive: dose: 12.5 mg/kg/injection, schedule: Q01DX005 (ip), vehicle: distilled water + Tween-80 96 % of control | dose: 25.0 mg/kg/injection, schedule: Q01DX005 (ip), vehicle: distilled water + Tween-80 90 % of control | dose: 50.0 mg/kg/injection, schedule: Q01DX005 (ip), vehicle: distilled water + Tween-80 94 % of control | dose: 100.0 mg/kg/injection, schedule: Q01DX005 (ip), vehicle: distilled water + Tween-80 90 % of control | dose: 200.0 mg/kg/injection, schedule: Q01DX005 (ip), vehicle: distilled water + Tween-80 94 % of control

COC1OC(CCl)C(Cl)C(OC)C1OC (centres undefined)
inactive: [1] 96 % of control | [2] 91 % of control | [3] 87 % of control

CC(C)(C)/C(=N\Nc1ccc([N+](=O)[O-])cc1[N+](=O)[O-])c1ccccc1
inactive: dose: 25.0 mg/kg/injection, schedule: Q01DX001 (ip), vehicle: saline with Tween-80 97 % of control | dose: 50.0 mg/kg/injection, schedule: Q01DX001 (ip), vehicle: saline with Tween-80 95 % of control | [1] 97 % of control

CN(CSc1ccc(Cl)cc1)c1ccccc1
inactive: [4] 96 % of control | [5] 96 % of control | [6] 96 % of control

COc1c(NS(=O)(=O)c2ccccc2)cc2c3c(cccc13)/C(=C1\Cc3cccc4c(OC)c(NS(=O)(=O)c5ccccc5)cc1c34)C2
inactive: [7] 95 % of control | [8] 91 % of control | [9] 92 % of control

O=C(COc1ccc(Cl)cc1Cl)Nc1ccc(F)cc1
inactive: [7] 88 % of control | [8] 90 % of control | [9] 89 % of control
